Results: ChEMBL document CHEMBL1201862, “PubChem BioAssay data set” (2004)
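Five concentrations, 48 hours, 96-well plates. GI50 = concentration required for 50% inhibition of growth.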 Activity calls are given as the source filed them. Cut-off read from the data, not from the text of the source: active = GI50 up to about 1.1 µM and inactive = higher.

What was measured:
Assay in all cases: DTP human tumour cell line panel, 48 h
786-0 = system: 786-0
ACHN = system: ACHN
BT-549 = system: BT-549
DU-145 = system: DU-145
HOP-62 = system: HOP-62
HOP-92 = system: HOP-92
LOX IMVI = system: LOX IMVI
MDA-MB-231 = system: MDA-MB-231
MDA-MB-435 = system: MDA-MB-435
MDA-N = system: MDA-N
NCI-H226 = system: NCI-H226
OVCAR-8 = system: OVCAR-8
SK-MEL-28 = system: SK-MEL-28
SK-MEL-5 = system: SK-MEL-5
SW-620 = system: SW-620
TK-10 = system: TK-10
Hs-578T = system: Hs-578T
NCI-H522 = system: NCI-H522
SR = system: SR

Compound	GI50 (786-0)	GI50 (ACHN)	GI50 (BT-549)	GI50 (DU-145)	GI50 (HOP-62)	GI50 (HOP-92)	GI50 (LOX IMVI)	GI50 (MDA-MB-231)	GI50 (MDA-MB-435)	GI50 (MDA-N)	GI50 (NCI-H226)	GI50 (OVCAR-8)	GI50 (SK-MEL-28)	GI50 (SK-MEL-5)	GI50 (SW-620)	GI50 (TK-10)	GI50 (Hs-578T)	GI50 (NCI-H522)	GI50 (SR)
Cc1ccc2c(c1)[nH]c(=S)n2C=C(C(N)=O)C(N)=O	> 100 µM (inactive)	> 100 µM (inactive)	> 100 µM (inactive)	> 100 µM (inactive)	> 100 µM (inactive)	> 100 µM (inactive)	> 100 µM (inactive)	> 100 µM (inactive)	> 100 µM (inactive)	> 100 µM (inactive)	> 100 µM (inactive)	> 100 µM (inactive)	> 100 µM (inactive)	> 100 µM (inactive)	> 100 µM (inactive)	> 100 µM (inactive)	–	–	–
O=C(c1ccc(Cl)cc1Cl)N(C(=O)N1CCCCC1)c1ccccc1	> 100 µM (inactive)	> 100 µM (inactive)	> 100 µM (inactive)	> 100 µM (inactive)	–	–	> 100 µM (inactive)	> 100 µM (inactive)	> 100 µM (inactive)	> 100 µM (inactive)	> 100 µM (inactive)	> 100 µM (inactive)	> 100 µM (inactive)	> 100 µM (inactive)	> 100 µM (inactive)	> 100 µM (inactive)	> 100 µM (inactive)	–	–
CCCCCCCCCCCCCCCCCCNc1ccn(C2OC(CO)C(OP(=O)(O)OCC3CCC(n4ccc(N)nc4=O)O3)C2O)c(=O)n1 (stereo not drawn)	> 100 µM (inactive)	> 100 µM (inactive)	30.8 µM (inactive)	> 100 µM (inactive)	> 100 µM (inactive)	> 100 µM (inactive)	32.3 µM (inactive)	> 100 µM (inactive)	> 100 µM (inactive)	> 100 µM (inactive)	> 100 µM (inactive)	> 100 µM (inactive)	61.5 µM (inactive)	> 100 µM (inactive)	46.3 µM (inactive)	42.1 µM (inactive)	> 100 µM (inactive)	28.6 µM (inactive)	–
Nc1ncnc2c1ncn2-c1ccc([N+](=O)[O-])cn1	> 100 µM (inactive)	> 100 µM (inactive)	> 100 µM (inactive)	> 100 µM (inactive)	> 100 µM (inactive)	> 100 µM (inactive)	> 100 µM (inactive)	> 100 µM (inactive)	> 100 µM (inactive)	> 100 µM (inactive)	> 100 µM (inactive)	> 100 µM (inactive)	> 100 µM (inactive)	> 100 µM (inactive)	> 100 µM (inactive)	> 100 µM (inactive)	61.9 µM (inactive)	–	–
COc1ccccc1/C=C/C1=NN(c2cccc(S(=O)(=O)O)c2)C2(C1)C(Cl)C(=O)N2c1nc2ccccc2s1 (stereo not drawn)	37.8 µM (inactive)	57.3 µM (inactive)	49.2 µM (inactive)	67 µM (inactive)	> 100 µM (inactive)	–	29.7 µM (inactive)	> 94.6 µM (inactive)	54.6 µM (inactive)	85.3 µM (inactive)	28 µM (inactive)	> 51.4 µM (inactive)	> 100 µM (inactive)	28.6 µM (inactive)	> 100 µM (inactive)	45.1 µM (inactive)	> 100 µM (inactive)	9.04 µM (inactive)	22.1 µM (inactive)
COc1ccc(N2C(=O)C3c4[nH]c5ccccc5c4C4C(C)CCCC4C3C2=O)cc1 (stereo not drawn)	17.5 µM (inactive)	47.8 µM (inactive)	3.64 µM (inactive)	> 83 µM (inactive)	23.6 µM (inactive)	35.1 µM (inactive)	46.5 µM (inactive)	20.4 µM (inactive)	3.46 µM (inactive)	3.19 µM (inactive)	41.3 µM (inactive)	34 µM (inactive)	> 71.1 µM (inactive)	35 µM (inactive)	> 53 µM (inactive)	> 88.3 µM (inactive)	19.8 µM (inactive)	7.94 µM (inactive)	–
CC(C)(C)OC(=O)NCCC1CNc2ccccc21 (stereo not drawn)	> 100 µM (inactive)	> 100 µM (inactive)	> 100 µM (inactive)	> 100 µM (inactive)	> 100 µM (inactive)	93.1 µM (inactive)	–	> 100 µM (inactive)	> 100 µM (inactive)	> 100 µM (inactive)	–	> 100 µM (inactive)	> 100 µM (inactive)	> 100 µM (inactive)	> 100 µM (inactive)	> 100 µM (inactive)	> 100 µM (inactive)	> 100 µM (inactive)	–
COC(=O)NNC(c1ccc(Cl)cc1)c1ccc(Cl)cc1	17.1 µM (inactive)	–	16.1 µM (inactive)	31 µM (inactive)	–	–	16.4 µM (inactive)	12.2 µM (inactive)	31.8 µM (inactive)	22.3 µM (inactive)	17.3 µM (inactive)	19.1 µM (inactive)	18.7 µM (inactive)	16.5 µM (inactive)	25.1 µM (inactive)	17.6 µM (inactive)	20.4 µM (inactive)	19.6 µM (inactive)	20.2 µM (inactive)
COc1cc2cc(C(=O)N3CC(CCl)c4c3cc(NC(=O)C(C)Nc3c([N+](=O)[O-])cc(C(=O)NCCN(C)C)cc3[N+](=O)[O-])c3ccccc43)[nH]c2c(OC)c1OC (stereo not drawn)	0.0204 µM (active)	0.032 µM (active)	0.187 µM (active)	< 0.0182 µM (active)	0.0619 µM (active)	0.0285 µM (active)	0.0478 µM (active)	0.18 µM (active)	0.16 µM (active)	0.158 µM (active)	0.113 µM (active)	0.132 µM (active)	0.123 µM (active)	0.104 µM (active)	0.117 µM (active)	0.333 µM (active)	–	0.0172 µM (active)	–
O=C1CC(NC(=O)C(F)(F)F)c2c(Br)sc(N3CCNCC3)c21 (stereo not drawn)	> 100 µM (inactive)	> 100 µM (inactive)	> 100 µM (inactive)	> 100 µM (inactive)	–	53 µM (inactive)	> 100 µM (inactive)	> 100 µM (inactive)	> 100 µM (inactive)	> 100 µM (inactive)	> 100 µM (inactive)	> 100 µM (inactive)	> 100 µM (inactive)	> 100 µM (inactive)	> 100 µM (inactive)	> 100 µM (inactive)	> 100 µM (inactive)	> 100 µM (inactive)	–
COc1cc2ccnc3c2c(c1O)N(C)C=C3	7.19 µM (inactive)	9.48 µM (inactive)	9.08 µM (inactive)	23.7 µM (inactive)	22 µM (inactive)	21.2 µM (inactive)	8.39 µM (inactive)	22.1 µM (inactive)	11.6 µM (inactive)	3.91 µM (inactive)	18 µM (inactive)	9.53 µM (inactive)	24.9 µM (inactive)	12.8 µM (inactive)	12 µM (inactive)	16.2 µM (inactive)	18.7 µM (inactive)	1.59 µM (inactive)	–
CS(=O)(=O)OCOS(C)(=O)=O	> 100 µM (inactive)	58.9 µM (inactive)	> 100 µM (inactive)	59.6 µM (inactive)	> 100 µM (inactive)	> 100 µM (inactive)	43.8 µM (inactive)	> 100 µM (inactive)	> 100 µM (inactive)	> 100 µM (inactive)	40.6 µM (inactive)	> 100 µM (inactive)	> 100 µM (inactive)	> 100 µM (inactive)	34.4 µM (inactive)	> 100 µM (inactive)	–	–	20.2 µM (inactive)
